Measurements taken from patent publication US20030100590A1, “3-(4,5-dihydroisoxazol-5-yl)benzoylpyrazole” (priority 1999, published 2003).

Tests used:
[1] = test system: Avena fatua, Bromus inermis, Matricaria chamomilla, Matricaria inodora; experiment: greenhouse post-emergence herbicidal test, harmful plants; format: in vivo; details: application rate 125 or 62.5 g/ha a.s., 2 to 4 weeks
Experimental: (§1) The seeds of the test plants were sown separately for each species. For the post-emergence treatment, the test plants were grown to a plant height of from 3 to 15 cm, depending on the plant habit, and only then treated with the active ingredients which had been suspended or emulsified in water. To this end, the test plants were either sown directly and grown in the same containers, or they were first grown separately as seedlings and transplanted into the test containers a few days prior to treatment. The rate of application for the post-emergence treatment was 125 or 62.5 g/ha a.s. (active substance). Depending on the species, the plants were kept at from 10 to 25° C. and 20 to 35° C., respectively. The test period extended over 2 to 4 weeks. During this time, the plants were tended, and their response to the individual treatments was evaluated. Evaluation was carried out using a scale of from 0 to 100. 100 means no emergence of the plants, or complete destruction of at least the aerial parts, and 0 means no damage or normal course of growth. The plants used in the greenhouse experiments belonged to the following species: [table]

spring wheat = experiment: greenhouse post-emergence test, crop plant compatibility; format: in vivo, Tritricum aestivum; details: application rate 125 or 62.5 g/ha a.s., 2 to 4 weeks
Experimental: as §1

| melting point [°C] | SMILES | herbicidal activity against the abovementioned harmful plants [1] | compatibility with / damage in the crop plant spring wheat (spring wheat) |
| --- | --- | --- | --- |
|  | Cc1cc(-c2c(S(C)(=O)=O)ccc(C(=O)c3cnn(C)c3O)c2C)on1 [A] | weaker herbicidal activity | caused damage |
| > 215 | CC1=NOC(c2c(S(C)(=O)=O)ccc(C(=O)c3cnn(C)c3O)c2Cl)C1 (stereo not shown) [Compound 2.8, 4-[2-Chloro-3-(3-methyl-4,5-dihydroisoxazol-5-yl)-4-methyl-sulfonylbenzoyl]-5-hydroxy-1-methyl-1H-pyrazole] |  |  |
| > 220 | CC1=NOC(c2c(S(C)(=O)=O)ccc(C(=O)c3cnn(C4CC4)c3O)c2Cl)C1 (stereo not shown) [Compound 2.36, 4-[2-Chloro-3-(3-methyl-4 , 5-dihydroisoxazol-5-yl)-4-methyl-sulfonylbenzoyl]-5-hydroxy-1-cyclopropyl-1H-pyrazole] |  |  |
